The test system of series [1] is murine primary cortical neurons. The experiment in a line: Cytotoxicity of H2S donors to murine primary cortical neurons (LDH release). Particulars: 24 hours. Type of series: cell-based, mice. The protocol:
(§1) A microtiter plate containing cells was centrifuged at 250×g for 10 minutes and the supernatant was used for LDH measurement with LDH Cytotoxicity Detection Kit (Roche). After aspirating the medium, remaining cells were washed with PBS, then, 100 μl of 1% Triton-X was added to each well, followed by incubation at 37° C. for 30 minutes. Medium and lysates were used for LDH measurement at wavelength 492 nm. Percentage of released LDH was calculated with following formula: {LDH (medium)/LDH (medium+cell)×100}. Average value of control (cells without OGD) was deducted as background.
In general terms: LDH in the medium is a marker of cell lysis.

Series [2] has as its system SH-SY5Y. The series is described as follows: Amyloid beta-induced toxicity in SH-SY5Y (LDH release, MTT). Particulars: 24 hours incubation with Aβ1-42 at 20 μM; for Cell viabilities after Aβ1-42: compound 20 or 50 μM. Type of series: cell-based, Human. Here is the method:
FIG. 12A-B is a set of two bar graphs showing cell viability of SH-SY5Y cells exposed to 20 μM amyloid beta (Aβ) and treated with memantine, ACS48, or S-memantine at 20 or 50 μM. Cell viability was estimated by LDH release assay in the left graph and MTT assay in the right graph.

The test system of series [3] is murine primary cortical neurons. The experiment in a line: Amyloid beta-induced toxicity in murine primary cortical neurons (LDH release, MTT). Type of series: cell-based, mice. Particulars: 24 hours incubation with Aβ1-42 at 20 μM; for Cell viabilities after Aβ1-42: compound 5, 10 or 30 μM. The protocol: FIG. 13A-B is a set of two bar graphs depicting cell viability of murine primary cortical neurons exposed to 20 μM amyloid beta (Aβ) and treated with memantine, ACS48, or S-memantine at 5, 10, or 30 μM. Cell viability was estimated by LDH release assay in the left graph and MTT assay in the right graph.

For series [4], the system named is SH-SY5Y cells. The experiment in a line: Oxygen-glucose deprivation (OGD) of SH-SY5Y cells, viability by LDH release, MTT and CV assays. Type of series: cell-based, Human. Here is the method:
OGD for SH-SY5Y was performed by placing cells in a hypoxia chamber ([…] Technologies Inc.) for 15 hours, followed by 24 hours of reoxygenation as previously reported (FIG. 3A) (Serra-Pérez et al. (2008) Journal of Neurochemistry 106, 1237-1247). Briefly, medium was replaced with glucose-free RPMI 1640 with L-glutamine (Cellgro by Mediatech, Inc), deoxygenated with anaerobic gas mixture (93% N2-5% CO2-2% H2) for 30 minutes before use. Cells were then placed in a hypoxia chamber, flushed with anaerobic gas mixture (93% N2-5% CO2-2% H2) and incubated at 37° C. After 15 hours of hypoxia, medium was replaced with DMEM/F12 and incubated for 24 hours at 37° C. in 95% air/5% CO2 in a humidified incubator.
as §1
Ten μl of thiazolyl blue tetrazolium bromide solution (5 mg/ml in PH 7.4 PBS) was added to each well containing 100 μl of medium and cells, followed by incubation at 37° C. for 4 hours in the dark. Isopropanol (100 μl, 0.04 N HCl) was added to dissolve blue dye. After dissolved completely, absorbance was measured with plate-reader (Synergy 2, BioTek Instrument) at test wavelength 570 nm and reference wavelength 670 nm. Cell viability was determined by absorbance at 570 nm and reported as ratio to control cells (without OGD).
After aspirating culture medium, cells were fixed and stained by 0.5% CV in 95% (v/v) ethanol for 5 minutes, then washed by tap water several times. After taking photographs, 1% sodium dodecylsulfate solution was added to each well to elute blue dye. Absorbance was measured with plate-reader at 595 nm of wavelength. Values were shown as ratio to control (cells without OGD).

For series [5], the system named is murine primary cortical neurons. The experiment in a line: Intracellular calcium level [Ca2+]i (Fura-2/AM) with or without glutamate. Type of series: cell-based, mice. (A change in cytosolic calcium serves as a functional read-out for many receptors and channels.)
The subject of series [6] is SH-SY5Y cells. The series is described as follows: Intracellular sulfide levels in SH-SY5Y cells (HPLC). Type of series: cell-based, Human. The protocol:
Human neuroblastoma SH-SY5Y cells were cultured in Eagle's medium/Ham's F-12 50/50 Mix (DMEM/F12, Cellgro by Mediatech, Inc.) supplemented with 10% fetal bovine serum (FBS) and 1% penicillin/streptomycin. The cells were seeded into 96 well plates (2×10^4 cells per well) for OGD and measurements of toxicity, 6 cm dishes (5×10^5 cells per dish) for measurements of sulfide and reduced-glutathione (GSH), or 10 cm dishes (1×10^6 cells per dish) for measurements of intracellular calcium. Cell culture medium was replaced every 2 days, and the cultures were maintained at 37° C. in 95% air/5% CO2 in a humidified incubator. Cells were used after reaching 80% confluent.
Concentration of free sulfide in SH-SY5Y cells was measured using high performance liquid chromatography (HPLC) (Tokuda et al. (2012) Antioxidants & Redox Signaling). Briefly, SH-SY5Y cells were seeded into 6 cm dishes (5×10^5 cells per dish). After being 80% confluent, 20 μM H2S donor was added to the dish and incubated at 37° C. Cells were washed with ice-cold Tris-HCl (100 mM, PH 9.5, DTPA 0.1 mM) buffer, scraped, transferred to microfuge tubes, and centrifuged. MBB (10 mM in acetonitrile, 50 μl) was added to 100 μl of supernatant. After 30 minutes of incubation at room temperature in dark, 50 μl of 200 mM 5-sulfosalicylic acid (SSA) was added. After centrifugation, supernatant was analyzed by HPLC. For sulfide levels in medium, after centrifugation, supernatant was used for MBB reaction as above.
In contrast, incubation of SH-SY5Y cells with S-memantine increased intracellular sulfide level more markedly than incubation with ACS48 at all time points after addition (˜10 fold at 4 hours, P<0.001 by two-way ANOVA with Bonferroni post-test). In a separate experiment, we examined whether or not incubation with memantine itself or incubation with ACS48 and memantine would affect intracellular sulfide levels in SH-SY5Y cells.

The subject of series [7] is SH-SY5Y. The experiment in a line: Intracellular GSH levels in SH-SY5Y (HPLC). Type of series: cell-based, Human. Here is the method:
Intracellular GSH level of SH-SY5Y was measured using HPLC method as previously reported (Kimura et al. (2009) Antioxidants & Redox Signaling 12, 1-13). Briefly, cells were seeded into 6 cm dishes (5×10^5 cells per dish) and treated with 50 μM H2S donors or memantine with or without 2 mM glutamate for 8 hours, followed by washing with ice-cold PBS. Cells were scraped and transferred to a microfuge tube and sonicated. Some fraction of lysate was used for protein assay. After centrifugation, 75 μl of supernatant, 26 μl of 2-(cyclohexylamino) ethanesulfonic acid (CHES, 0.5 M, PH 8.4), and 4 μl of 50 μM MBB were mixed and incubated at room temperature in dark for 30 minutes. Acetic acid (100 μl, 30% v/v) was added, followed by centrifugation at 15,000×g for 10 min after 5 min incubation of the tube on ice. The supernatant was analyzed using HPLC at wavelength of λex=370 nm and λem=486 nm.

A short description of series [8]: Plasma and cerebral sulfide levels of mice after intraperitoneal administration. Type of series: in vivo. Particulars: 25 μmol/kg intraperitoneal, 90 minutes after administration. The source says: Blood was drawn from left ventricle and centrifuged to collect the plasma. After perfusion with Tris-HCl buffer via left ventricle, brain was harvested, homogenized in Tris-HCl, and centrifuged. Plasma and supernatant of brain homogenate were derivatized with MBB and analyzed by HPLC.

For series [9], the system named is SH-SY5Y cells. The series is described as follows: MPP+-induced cytotoxicity in SH-SY5Y cells (CV, MTT assay). Type of series: cell-based, Human. Particulars: 24 h. Here is the method:
The abilities of ACS48-amantadine, CTBA-memantine, S-memantine, and ACS81-memantine to improve viabilities of SH-SY5Y cells incubated with MPP^+, which has been used for an in-vitro Parkinson's disease model (Robert et al. (2012) Cell Death and Differentiation, 19, 1769-1778), were examined. SH-SY5Y cells (96 well plate, 2×10^5 cells/well) were incubated with MPP^+ (Sigma-Aldrich) at 5 mM in DMEM/F12 at 37° C. for 24 h. ACS48-amantadine, CTBA-memantine, S-memantine, or ACS81-memantine was dissolved in DMSO and added at 5 or 20 μM to the medium 30 min after the addition of MPP^+. The final concentration of DMSO in the medium was adjusted to 0.5% (v/v). Cell viabilities of SH-SY5Y 24 h after the addition of MPP^+ were measured by CV assay or MTT assay.
A general note: Tetrazolium dyes change colour on reduction, which living cells bring about.

In the next series the test system is mice challenged with LPS. The experiment in a line: LPS-induced cognitive impairment, Morris water-maze.
The subject of series [10] is phosphorylated Akt at threonine 308. The series is described as follows: Immunoblot of phosphorylated Akt in SH-SY5Y after OGD. Type of series: cell-based, Human. Particulars: 50 μM added 8 hours after end of OGD.
The test system of series [11] is phosphorylated tau protein at serine 202 and threonine 205. The experiment in a line: LPS-induced tau phosphorylation in mice hippocampus (immunoblot). Type of series: in vivo.
[12] abbreviates: time- and dose-range studies, SH-SY5Y.
[13] abbreviates: 20 μM added 30 min after 5 mM MPP+.

“Also recorded” adds a separate entry of the source. Like-named read-outs stand apart in the source and are kept apart here.

In the case of `O=C(O)c1ccc(-c2cssc2=S)cc1` [ACS48, 4-(3-thioxo-3H-1,2-dithiol-4-yl)-benzoic acid], the “LDH release (cytotoxicity)” value in [1] (50 μM, without memantine) was “markedly increased LDH release”. In addition, the “Cell viabilities after Aβ1-42 compared with memantine” value (in the series on SH-SY5Y [2]; in series [3]) was “improved cell viabilities more markedly than did memantine” throughout. For the same molecule, the “Cell viabilities after Aβ1-42” value (in the series with SH-SY5Y [2]; in series [3]) was “improved cell viabilities” throughout. In addition, in the series with SH-SY5Y cells [4] (setting [12]), the “Most effective dose to improve viability after OGD” value worked out at 50 µM. For the same molecule, in the series on SH-SY5Y cells [4] (setting [12]), the “Most effective time point of addition after the end of OGD” value worked out at 8 h. Moreover, the Glutamate-induced calcium accumulation entry in [5] (20 μM, 100 μM glutamate) is “augmented glutamate-induced calcium accumulation”. In addition, the “Increase of intracellular calcium [Ca2+]i” value in [5] (20 μM, without glutamate) is on record as “increased”. Also, in the series on SH-SY5Y cells [6] (20 μM, SH-SY5Y), the “Time of peak intracellular sulfide levels after addition” value was “around 1.5 hours”. The Intracellular sulfide levels result with SH-SY5Y cells [6] (20 μM, SH-SY5Y, 37° C.) was “increased intracellular sulfide levels”. The “Intracellular GSH levels” value with SH-SY5Y [7] (50 μM, 8 hours, with 2 mM glutamate) is “restored intracellular GSH levels”; with SH-SY5Y [7] (50 μM, 8 hours, without glutamate), “increased intracellular GSH levels”. Besides, the Plasma sulfide levels entry in series [8] is recorded as “increased plasma sulfide levels”.
As for `O=C(NC12CC3CC(CC(C3)C1)C2)c1ccc(-c2cssc2=S)cc1` [ACS48-amantadine], the “Cell viabilities of SH-SY5Y cells after MPP+” value with SH-SY5Y cells [9] (5 μM added 30 min after 5 mM MPP+) and with SH-SY5Y cells [9] (setting [13]) was “improved cell viabilities” throughout.
In the case of `CC12CC3CC(C)(C1)CC(NC(=O)c1ccc(C(N)=S)cc1)(C3)C2` [CTBA-memantine], the “Cell viabilities of SH-SY5Y cells after MPP+” value with SH-SY5Y cells [9] (setting [13]) was “improved cell viabilities”.
For the molecule `CC12CC3CC(C)(C1)CC(N)(C3)C2` [memantine], the “LDH release caused by Na2S or ACS48 on co-incubation with memantine” value in [1] (50 μM Na2S or ACS48 plus 50 μM memantine) was “abolished”. The “Swimming speed in Morris water-maze test” value is on record as “did not change it” with mice challenged with LPS (45 μmol/kg i.p.) and “slowed swimming speed” in the series with mice challenged with LPS (90 μmol/kg i.p.). Further, the “Akt phosphorylation after OGD” value in series [10] was “did not affect Akt phosphorylation”. For the same molecule, the “LPS-induced tau phosphorylation at serine 202 and threonine 205 in mice hippocampus” value in [11] (45 μmol/kg pretreatment) was “prevented LPS-induced tau phosphorylation”. In addition, the “Cell viabilities after Aβ1-42” value (with SH-SY5Y [2]; in series [3]) was “improved cell viabilities” each time. Besides, in the series with Aβ1-42 (45 μmol/kg pretreatment, LPS challenge for 7 days), the “Aβ1-42 accumulation in mice cortex, or hippocampus” value is reported as “prevented Aβ1-42 accumulation”. For the same molecule, in series [5] (20 μM, 100 μM glutamate), the Glutamate-induced calcium accumulation entry is reported as “suppressed calcium accumulation”. Besides, the “Effect of memantine on intracellular sulfide levels” value in the series on SH-SY5Y cells [6] (20 μM memantine, cells incubated with or without ACS48 20 μM) is on record as “did not affect intracellular sulfide levels”. Besides, the “GSH levels, memantine per se” value in the series with SH-SY5Y [7] (50 μM, 8 hours) was “did not affect GSH levels”.
As for Sodium sulfide [Na2S], the “Latency until getting platform in Morris water-maze test” value in the series with mice challenged with LPS (mouse, in vivo) is recorded as “improved latency”. Besides, in series [11] (mouse, in vivo), the “LPS-induced tau phosphorylation at serine 202 and threonine 205 in mice hippocampus” value is reported as “prevented LPS-induced tau phosphorylation”. Besides, in the series on Aβ1-42 (mouse, in vivo), the “Aβ1-42 accumulation in mice cortex, or hippocampus” value is recorded as “prevented Aβ1-42 accumulation” and the “Prevention of Aβ1-42 accumulation compared with memantine” value is “prevented Aβ1-42 accumulation more markedly than did memantine”. The “Cell viability after OGD (LDH release)” value with SH-SY5Y cells [4] was “did not improve cell viability; also recorded: failed to improve cell viability; also recorded: No significant difference”. In addition, in [5], the Glutamate-induced calcium accumulation entry is recorded as “augmented glutamate-induced calcium accumulation” and the “Increase of intracellular calcium [Ca2+]i” value is “increased”. In the series with SH-SY5Y cells [6], the Intracellular sulfide levels result is listed as “increased intracellular sulfide levels” and the “Time of peak intracellular sulfide levels after addition” value is “around 1.5 hours”. In the series on SH-SY5Y [7], the “Intracellular GSH levels” value is recorded as “increased intracellular GSH levels; also recorded: restored intracellular GSH levels”.

Values taken from patent US9242009B2, “Compositions and methods to treat neurodegenerative diseases” (The General Hospital Corporation, priority 2012, dated 2016).
